Measurements published in patent publication US20120277209A1, “PYRAZINE COMPOUNDS AS PHOSPHODIESTERASE 10 INHIBITORS” (Amgen Inc., priority 2009, published 2012).

Target: PDE10 (UniProt Q9Y233)
Test: PDE10 enzyme inhibition, IMAP TR-FRET assay (MPDE10A7 Enzyme Activity and Inhibition)
Assay type: biochemical
Conditions: IC50 class against PDE10; read-out: IC50
Procedure, shortened: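 PDE10A enzyme or tissue homogenate preincubated with compounds 30 min at room temperature, then fluorescein-labelled cAMP or cGMP added for 60 min. IMAP binding reagent stop, TR-FRET read. Values are mean IC50s, grouped into five potency classes.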

SMILES | IC50
N#CC1CN(c2nccnc2Oc2ccc(Nc3nc4ccccc4s3)cc2)C1 [Example 93, 1-(3-(4-(benzo[d]thiazol-2-yl-amino)phenoxy)pyrazin-2-yl)-azetidine-3-carbonitrile] | 25 to 100 nM
COc1cccc2nc(Nc3ccc(Oc4nccnc4C4CCOCC4)cc3)[nH]c12 [Example 209, 7-methoxy-N-(4-(3-(tetrahydro-2H-pyran-4-yl)pyrazin-2-yloxy)phenyl)-1H-benzo[d]imidazol-2-amine] | < 25 nM
CC(C)N1CCN(c2nccnc2Oc2ccc(Nc3nc4ccccc4s3)cc2)CC1=O [Example 91, 4-(3-(4-(benzo[d]thiazol-2-yl-amino)phenoxy)pyrazin-2-yl)-1-isopropylpiperazin-2-one] | 25 to 100 nM
CC(=O)N1CCC(c2nccnc2Oc2ccc(Nc3nc4ccccc4s3)cc2F)CC1 [Example 248, 1-(4-(3-(4-(benzo[d]thiazol-2-ylamino)-2-fluorophenoxy)pyrazin-2-yl)piperidin-1-yl)ethanone] | < 25 nM
CC(=O)N1CCCC(c2nccnc2Oc2ccc(C(=O)c3nc4ccccc4[nH]3)cc2)C1 (racemic) [Example 251, 1-(3-(3-(4-(1H-benzo[d]imidazole-2-carbonyl)phenoxy)pyrazin-2-yl)piperidin-1-yl)ethanone 2,2,2-trifluoroacetate] | < 25 nM
O=C(c1ccc(Oc2nccnc2OCCN2CCCC2)cc1)c1nc2ccccc2[nH]1 [Example 173, (1H-benzo[d]imidazol-2-yl)(4-(3-(2-(pyrrolidin-1-yl)ethoxy)pyrazin-2-yloxy)phenyl)methanone] | 100 to 250 nM
OC[C@@H]1CCN(c2nccnc2Oc2ccc(Nc3nc4ccccc4s3)cc2)C1 [Example 85, (R)-(1-(3-(4-(benzo[d]thiazol-2-ylamino)phenoxy)pyrazin-2-yl)pyrrolidin-3-yl)methanol] | < 25 nM
CC(C)COc1nccnc1Oc1ccc(C(=O)c2nc3ccccc3[nH]2)cc1 [Example 162, (1H-benzo[d]imidazol-2-yl)(4-(3-isobutoxypyrazin-2-yloxy)phenyl)methanone] | 1000 to 5000 nM

Second part, the compound after the results:

IC50 | SMILES
< 25 nM | O=C(c1ccc(Oc2nccnc2[C@H]2CCC[C@H](O)C2)cc1)c1nc2ccccc2[nH]1 (racemic) [Example 190, (rac)-trans-(1H-benzo[d]imidazol-2-yl)(4-(3-(3-hydroxycyclohexyl)pyrazin-2-yloxy)phenyl)methanone]
< 25 nM | O=C(c1ccc(Oc2nccnc2C2=CCC(F)(F)CC2)cc1)c1nc2ccccc2[nH]1 [Example 199, (1H-benzo[d]imidazol-2-yl)(4-(3-(4,4-difluorocyclohex-1-enyl)pyrazin-2-yloxy)phenyl)methanone]
1000 to 5000 nM | CC(C)Oc1nccnc1Oc1ccc(C(=O)c2nc3ccccc3[nH]2)cc1 [Example 161, (1H-benzo[d]imidazol-2-yl)(4-(3-isopropoxypyrazin-2-yloxy)phenyl)methanone]
< 25 nM | CC(Cc1ccccn1)NC(=O)c1nccnc1Oc1ccc(C(=O)c2nc3ccccc3[nH]2)cc1 (racemic) [Example 259, (rac)-3-(4-(1H-benzo[d]imidazole-2-carbonyl)phenoxy)-N-(1-(pyridin-2-yl)propan-2-yl)pyrazine-2-carboxamide]
25 to 100 nM | COCC1CCN(c2nccnc2Oc2ccc(Nc3nc4ccccc4s3)cc2)CC1 [Example 87, N-(4-(3-(4-(methoxymethyl)-piperidin-1-yl)pyrazin-2-yl-oxy)phenyl)benzo[d]thiazol-2-amine]
< 25 nM | Cc1cc(-c2nccnc2Oc2ccc(C(=O)c3nc4ccccc4[nH]3)cc2)ccn1 [Example 107, (1H-benzo[d]imidazol-2-yl)(4-(3-(2-methylpyridin-4-yl)pyrazin-2-yloxy)phenyl)methanone]
1000 to 5000 nM | Fc1ccc2sc(Nc3ccc(Oc4cnccn4)cc3)nc2c1 [Example 219, 5-fluoro-N-(4-(pyrazin-2-yloxy)phenyl)benzo[d]thiazol-2-amine]
250 to 1000 nM | O=S1(=O)CCN(c2nccnc2Oc2ccc(Nc3nc4ccccc4s3)cc2)CC1 [Example 75, N-(4-((3-(1,1-dioxido-4-thio-morpholinyl)-2-pyrazinyl)oxy)-phenyl)-1,3-benzothiazol-2-amine]
25 to 100 nM | COc1ccncc1-c1nccnc1Oc1ccc(C(=O)c2nc3ccccc3[nH]2)cc1 [Example 112, (1H-benzo[d]imidazol-2-yl)(4-(3-(4-methoxypyridin-3-yl)pyrazin-2-yloxy)phenyl)methanone]
< 25 nM | COC[C@@H]1CCCN1c1nccnc1Oc1ccc(Nc2nc3ccccc3s2)cc1 [Example 57, (S)—N-(4-(3-(2-(METHOXYMETHYL)PYRROLIDIN-1-YL)PYRAZIN-2-YLOXY)PHENYL)BENZO[D]THIAZOL-2-AMINE]
< 25 nM | c1cncc(-c2nccnc2Oc2ccc(Nc3nc4ccccc4s3)cc2)c1 [Example 148, N-(4-(3-(pyridin-3-yl)pyrazin-2-yloxy)phenyl)benzo[d]thiazol-2-amine]

Same assay, conditions: PDE10 enzyme inhibition; average IC50 data for each compound; read-out: Average IC50

SMILES | IC50
O=C(c1ccc(Oc2nccnc2[C@H]2CCC[C@@H](O)C2)cc1)c1nc2ccccc2[nH]1 [drawing 909] | 0.961 nM
OC1(c2nccnc2Oc2ccc(Nc3nc4ccccc4s3)cc2)CCOCC1 [drawing 902] | 0.902 nM
CN1CCCC1CCOc1nccnc1Oc1ccc(C(=O)c2nc3ccccc3[nH]2)cc1 (stereo not shown) [drawing 858] | 235 nM
FC(F)(c1ccc(Oc2nccnc2C2CCOCC2)cc1)c1nc2ccccc2[nH]1 | 52.9 nM
O=C(O)C1CN(c2nccnc2Oc2ccc(Nc3nc4ccccc4s3)cc2)C1 [drawing 718] | 2.16 nM
CC(=O)N1CCC(c2nccnc2Oc2ccc(C(=O)c3nc4ccccc4n3C)cc2)CC1 [drawing 965] | 0.174 nM
c1ccc2sc(Nc3ccc(Oc4nccnc4-c4cncnc4)cc3)nc2c1 [drawing 778] | 12.9 nM

Continued, values first:

IC50 | SMILES
3.73 nM | Cc1noc([C@@H]2CCN(c3nccnc3Oc3ccc(C(=O)c4nc5ccccc5[nH]4)cc3)C2)n1 (stereo in doubt)
7.72 nM | O=C(c1ccc(Oc2nccnc2C2CCOCC2)cc1)c1nc2ncccc2[nH]1 [drawing 890]
38.8 nM | O=C(c1ccc(Oc2nccnc2OCc2cccnc2)cc1)c1nc2ccccc2[nH]1 [drawing 904]

Same assay, conditions: PDE10 enzyme inhibition; chiral compounds separated from racemic mixtures; read-out: IC50

IC50 | SMILES
< 25 nM | O[C@@H]1CCC[C@@H](c2nccnc2Oc2ccc(Nc3nc4ccccc4s3)cc2)C1 [Example 276, (1R,3R)-3-(3-(4-(benzo[d]thiazol-2-ylamino)phenoxy)pyrazin-2-yl)cyclohexanol]
< 25 nM | O=C(c1ccc(Oc2nccnc2[C@H]2CCC[C@H](O)C2)cc1)c1nc2ccccc2[nH]1 [Example 273, (1H-benzo[d]imidazol-2-yl)(4-(3-((1S,3S)-3-hydroxycyclohexyl)pyrazin-2-yloxy)phenyl) methanone]
